The subject of this assay is WT Mtb Erdman strain. The assay can be described thus: Microplate Alamar Blue Assay (MABA), Mtb growth inhibition. The assay is classed as cell-based, Mycobacterium tuberculosis. The conditions noted are these: Mycobacterium tuberculosis, ERDMAN, 168 h, Middlebrook 7H9 media, 7 days at 37° C. in 5% CO2. For orientation: The colour change of resazurin is a common sign of viable cells or microbes.

What is called IC50 is the concentration at which inhibition is half-maximal. Low values mean greater potency, high ones weaker potency. Molecule `CSc1nc(NCCCc2ccc(-c3ccc(C(F)(F)F)nc3)cc2)c2cc(C)sc2n1` [Example 431, 6-methyl-2-(methylthio)-N-(3-(4-(6-(trifluoromethyl)pyridin-3-yl)phenyl)propyl)thieno[2,3-d]pyrimidin-4-amine] registered a 50% inhibitory concentration (IC50) of 20 nM.

For `CSc1nc(NCCCc2ccc(-c3ccc(C#N)cc3)cc2)c2cc(C)sc2n1` [Example 432, 4′-(3-((6-methyl-2-(methylthio)thieno[2,3-d]pyrimidin-4-yl)amino)propyl)-[1,1′-biphenyl]-4-carbonitrile], the concentration for half-maximal inhibition (IC50) amounted to 14 nM.

In the case of `Cc1cc2c(NCCCc3ccc(-c4ccc(OC(F)(F)F)cc4)cc3)nc(Cl)nc2s1` [Example 433, 2-chloro-6-methyl-N-(3-(4′-(trifluoromethoxy)-[1,1′-biphenyl]-4-yl)propyl)thieno[2,3-d]pyrimidin-4-amine], the midpoint of inhibition, the IC50, lay at 54 nM.

In the case of `Cc1cc2c(NCCCc3ccc(-c4ccc(Cl)cc4)cc3)nc(-c3ccoc3)nc2s1` [Example 434, N-(3-(4′-chloro-[1,1′-biphenyl]-4-yl)propyl)-2-(furan-3-yl)-6-methylthieno[2,3-d]pyrimidin-4-amine], the IC50 came to 10 nM.

With `Cc1cc2c(NCCCc3ccc(-c4ccc(Cl)cc4)cc3)nc(Cl)nc2s1` [Example 435, 2-chloro-N-(3-(4′-chloro-[1,1′-biphenyl]-4-yl)propyl)-6-methylthieno[2,3-d]pyrimidin-4-amine], the midpoint of inhibition, the IC50, lay at 30 nM. This IC50 is about 3-fold higher than that of the molecule before.

In turn, `Cc1cc2c(NCCCc3ccc(-c4ccc(Cl)cc4)cc3)nc(-c3ccc(F)cc3)nc2s1` [Example 436, N-(3-(4′-chloro-[1,1′-biphenyl]-4-yl)propyl)-2-(4-fluorophenyl)-6-methylthieno[2,3-d]pyrimidin-4-amine] had an IC50 of 220 nM. Compared with the last molecule, the IC50 is about 7.3-fold higher.

Take `Cc1cc2c(NCCCc3ccc(-c4ccc(C5CC5)cc4)cc3)nc(Cl)nc2s1` [Example 437, 2-chloro-N-(3-(4′-cyclopropyl-[1,1′-biphenyl]-4-yl)propyl)-6-methylthieno[2,3-d]pyrimidin-4-amine]: the midpoint of inhibition, the IC50, lay at 85 nM.

For `Cc1cc2c(NCCCc3ccc(-c4ccc(C(F)(F)F)nc4)cc3)nc(Cl)nc2s1` [Example 438, 2-chloro-6-methyl-N-(3-(4-(6-(trifluoromethyl)pyridin-3-yl)phenyl)propyl)thieno[2,3-d]pyrimidin-4-amine], 140 nM corresponded to half-maximal inhibition (IC50).

Molecule `Cc1cc2c(NCCCc3ccc(-c4ccc(C#N)cc4)cc3)nc(Cl)nc2s1` [Example 439, 4′-(3-((2-chloro-6-methylthieno[2,3-d]pyrimidin-4-yl)amino)propyl)-[1,1′-biphenyl]-4-carbonitrile] showed an IC50 of 93 nM. Against the preceding molecule, the IC50 is about 1.5-fold lower.

`Cc1cc2c(NCCCc3ccc(-c4ccc(OC(F)(F)F)cc4)cc3)nc(-c3cccn3C)nc2s1` [Example 440, 6-methyl-2-(1-methyl-1H-pyrrol-2-yl)-N-(3-(4′-(trifluoromethoxy)-[1,1′-biphenyl]-4-yl)propyl)thieno[2,3-d]pyrimidin-4-amine] came in with a half-inhibitory concentration (IC50) of 8100 nM. Against the preceding molecule, the IC50 is about 87-fold higher.

The molecule `Cc1cc2c(NCCCc3ccc(-c4ccc(OC(F)(F)F)cc4)cc3)nc(-c3ccn(C)c3)nc2s1` [Example 441, 6-methyl-2-(1-methyl-1H-pyrrol-3-yl)-N-(3-(4′-(trifluoromethoxy)-[1,1′-biphenyl]-4-yl)propyl)thieno[2,3-d]pyrimidin-4-amine] had an IC50 of 49 nM.

Consider `Cc1cc2c(NCCCc3ccc(-c4ccc(OC(F)(F)F)cc4)cc3)nc(-c3cnc[nH]3)nc2s1` [Example 442, 2-(1H-imidazol-5-yl)-6-methyl-N-(3-(4′-(trifluoromethoxy)-[1,1′-biphenyl]-4-yl)propyl)thieno[2,3-d]pyrimidin-4-amine], for which half-maximal inhibition (IC50) was put at 230 nM.

Turning to `Cc1cc2c(NCCCc3ccc(-c4ccc(OC(F)(F)F)cc4)cc3)nc(-c3cn(C)cn3)nc2s1` [Example 443, 6-methyl-2-(1-methyl-1H-imidazol-4-yl)-N-(3-(4′-(trifluoromethoxy)-[1,1′-biphenyl]-4-yl)propyl)thieno[2,3-d]pyrimidin-4-amine], the IC50 came to 300 nM.

As to `Cc1cc2c(NCCCc3ccc(-c4ccc(OC(F)(F)F)cc4)cc3)nc(-c3cncn3C)nc2s1` [Example 444, 6-methyl-2-(1-methyl-1H-imidazol-5-yl)-N-(3-(4′-(trifluoromethoxy)-[1,1′-biphenyl]-4-yl)propyl)thieno[2,3-d]pyrimidin-4-amine], inhibition was half-maximal at 5500 nM (IC50).

`Cc1nc(NCCCc2ccc(-c3ccc(OC(F)(F)F)cc3)cc2)c2cc(C)sc2n1` [Example 445, 2,6-dimethyl-N-(3-(4′-(trifluoromethoxy)-[1,1′-biphenyl]-4-yl)propyl)thieno[2,3-d]pyrimidin-4-amine] showed a half-inhibitory concentration (IC50) of 160 nM.

Regarding `Cc1cc2c(NCCCc3ccc(-c4ccc(OC(F)(F)F)cc4)cc3)nc(-c3ncon3)nc2s1` [Example 446, 6-methyl-2-(1,2,4-oxadiazol-3-yl)-N-(3-(4′-(trifluoromethoxy)-[1,1′-biphenyl]-4-yl)propyl)thieno[2,3-d]pyrimidin-4-amine], the IC50 was 96 nM.

`Cc1cc2c(NCCCc3ccc(-c4ccc(OC(F)(F)F)cc4)cc3)nc(-c3cnn(C)c3)nc2s1` [Example 447, 6-methyl-2-(1-methyl-1H-pyrazol-4-yl)-N-(3-(4′-(trifluoromethoxy)-[1,1′-biphenyl]-4-yl)propyl)thieno[2,3-d]pyrimidin-4-amine]: the IC50 was 57 nM.

Regarding `CCSc1nc(NCCCc2ccc(-c3ccc(OC(F)(F)F)cc3)cc2)c2cc(C)sc2n1` [Example 448, 2-(ethylthio)-6-methyl-N-(3-(4′-(trifluoromethoxy)-[1,1′-biphenyl]-4-yl)propyl)thieno[2,3-d]pyrimidin-4-amine], 44 nM corresponded to half-maximal inhibition (IC50).

Regarding `Cc1cc2c(NCCCc3ccc(-c4ccc(OC(F)(F)F)cc4)cc3)nc(-c3c(C)noc3C)nc2s1` [Example 449, 2-(3,5-dimethylisoxazol-4-yl)-6-methyl-N-(3-(4′-(trifluoromethoxy)-[1,1′-biphenyl]-4-yl)propyl)thieno[2,3-d]pyrimidin-4-amine], the concentration for half-maximal inhibition (IC50) is more than 1000 nM.

`Cc1cc2c(NCCCc3ccc(-c4ccc(OC(F)(F)F)cc4)cc3)nc(-c3ccn(C)n3)nc2s1` [Example 450, 6-methyl-2-(1-methyl-1H-pyrazol-3-yl)-N-(3-(4′-(trifluoromethoxy)-[1,1′-biphenyl]-4-yl)propyl)thieno[2,3-d]pyrimidin-4-amine] registered an IC50 of 490 nM. This counts as sub-micromolar.

`Cc1cc2c(NCCCc3ccc(-c4ccc(OC(F)(F)F)cc4)cc3)nc(-n3ccnc3)nc2s1` [Example 451, 2-(1H-imidazol-1-yl)-6-methyl-N-(3-(4′-(trifluoromethoxy)-[1,1′-biphenyl]-4-yl)propyl)thieno[2,3-d]pyrimidin-4-amine] had a concentration for half-maximal inhibition (IC50) of 1800 nM.

For `Cc1cc2c(NCCCc3ccc(-c4ccc(OC(F)(F)F)cc4)cc3)nc(C3CC3)nc2s1` [Example 452], inhibition was half-maximal at 76 nM (IC50). Compared with the last molecule, the IC50 is about 24-fold lower.

`Cc1cc2c(NCCCc3ccc(-c4ccc(OC(F)(F)F)cc4)cc3)nc(C3CCC3)nc2s1` [Example 453, 2-cyclobutyl-6-methyl-N-(3-(4′-(trifluoromethoxy)-[1,1′-biphenyl]-4-yl)propyl)thieno[2,3-d]pyrimidin-4-amine] had a half-inhibitory concentration (IC50) of 58 nM.

`Cc1cc2c(NCCCc3ccc(-c4ccc(OC(F)(F)F)cc4)cc3)nc(-c3cn[nH]c3)nc2s1` [Example 454, 6-methyl-2-(1H-pyrazol-4-yl)-N-(3-(4′-(trifluoromethoxy)-[1,1′-biphenyl]-4-yl)propyl)thieno[2,3-d]pyrimidin-4-amine] showed an IC50 of more than 1000 nM.

In the case of `Cc1cc2c(NCCCc3ccc(-c4ccc(OC(F)(F)F)cc4)cc3)nc(C(C)C)nc2s1` [Example 455, 2-isopropyl-6-methyl-N-(3-(4′-(trifluoromethoxy)-[1,1′-biphenyl]-4-yl)propyl)thieno[2,3-d]pyrimidin-4-amine], the half-maximal inhibitory concentration (IC50) turned out to be 56 nM.

For the molecule `Cc1cc2c(NCCCc3ccc(-c4ccc(OC(F)(F)F)cc4)cc3)nc(-c3ccoc3C)nc2s1` [Example 456, 6-methyl-2-(2-methylfuran-3-yl)-N-(3-(4′-(trifluoromethoxy)-[1,1′-biphenyl]-4-yl)propyl)thieno[2,3-d]pyrimidin-4-amine], the concentration for half-maximal inhibition (IC50) is more than 10000 nM.

As for `Cc1nc2c(NCCCc3ccc(-c4cnc(F)cn4)cc3)nc(-c3ncon3)nc2s1` [Example 457, N-(3-(4-(5-fluoropyrazin-2-yl)phenyl)propyl)-2-methyl-5-(1,2,4-oxadiazol-3-yl)thiazolo[5,4-d]pyrimidin-7-amine], the IC50 was more than 1000 nM.

The molecule `CSc1nc(NCCCc2ccc(-c3ccc(C(F)(F)F)cn3)cc2)c2cc(C)sc2n1` [Example 458, 6-methyl-2-(methylthio)-N-(3-(4-(5-(trifluoromethyl)pyridin-2-yl)phenyl)propyl)thieno[2,3-d]pyrimidin-4-amine] gave a half-maximal inhibitory concentration (IC50) of 14 nM. This lies in the double-digit nanomolar range.

`Cc1cc2c(NCCCc3ccc(-c4ccc(OC(F)(F)F)cn4)cc3)nc(-c3ccon3)nc2s1` [Example 459, 2-(isoxazol-3-yl)-6-methyl-N-(3-(4-(5-(trifluoromethoxy)pyridin-2-yl)phenyl)propyl)thieno[2,3-d]pyrimidin-4-amine]: the IC50 was found to be 43 nM.

`Cc1nc2c(NCCCc3ccc(-c4cnc(F)cn4)cc3)nc(-c3ccon3)nc2s1` [Example 465, N-(3-[4-(5-fluoropyrazin-2-yl)phenyl]propyl)-2-methyl-5-(1,2-oxazol-3-yl)-[1,3]thiazolo[5,4-d]pyrimidin-7-amine] gave a concentration for half-maximal inhibition (IC50) of 180 nM.

The molecule `FC(F)(F)Oc1ccc(-c2ccc(CCCNc3nc(Cl)nc4sccc34)cc2)cc1` [Example 467, 2-chloro-N-(3-(4′-(trifluoromethoxy)-[1,1′-biphenyl]-4-yl)propyl)thieno[2,3-d]pyrimidin-4-amine] registered an IC50 of 200 nM.

`FC(F)(F)Oc1ccc(-c2ccc(CCCNc3nc(Cl)nc4scnc34)cc2)cc1` [Example 468, 5-chloro-N-(3-(4′-(trifluoromethoxy)-[1,1′-biphenyl]-4-yl)propyl)thiazolo[5,4-d]pyrimidin-7-amine]: 690 nM corresponded to half-maximal inhibition (IC50).

The molecule `Cc1cc2c(NCCCc3ccc(-c4cnc(F)cn4)cc3)nc(Cl)nc2s1` [Example 469, 2-chloro-N-(3-(4-(5-fluoropyrazin-2-yl)phenyl)propyl)-6-methylthieno[2,3-d]pyrimidin-4-amine] showed a half-inhibitory concentration (IC50) of 170 nM.

The values are drawn from patent US20240279236A1, “COMPOUNDS AND METHODS OF TREATING TUBERCULOSIS” (Fimbrion Therapeutics, Inc., priority 2021, published 2024).
